Values quoted from earlier work as cited in US7834015B2, “Pyrrolo[1,2-a] pyrazin-1(2H)-one and pyrrolo[1,2-d][1,2,4]triazin-1(2H)-one derivatives as inhibitors of poly(ADP-ribose)polymerase (PARP)” (Instituto di Ricerche Di Biologia Molecolare P. Angeletti …, priority 2006, dated 2010).

System: ischemia and reperfusion of the heart or skeletal muscle
Conditions: rabbits

| SMILES | reduced infarct size (single injection 1 mg/kg) | reductions in infarct size in the heart (single injection 10 mg/kg, one minute before occlusion or one minute before reperfusion) |
| --- | --- | --- |
| Oc1cccc2c(O)nccc12 [1,5-dihydroxyisoquinoline] | 38-48% | – |
| NC(=O)c1cccc(N)c1 [3-amino-benzamide] | – | 32-42% |
